Literature values, collected in US20080317886A1, “Compositions for Preventing and Reducing Delayed Onset Muscle Soreness” (priority 2005, published 2008).

Experiments:
[1] = HMB with 75 g glucose in water compared with HMB with water
[2] = tested on: muscle catabolism (3-methylhistidine); details: intense resistance-weight training
muscle damage (CPK, LDH) = details: 3 g HMB per day, six weeks of training, 20 km run; compared to placebo
[3] = tested on: perceived muscle soreness; details: downhill running protocol
[4] = "in as little as"
[5] = tested on: delayed onset muscle soreness; details: six days supplementation with 40 mg/kg HMB, single bout of exercise
[6] = tested on: muscle damage (blood CPK); details: men and women, 4-week weight training program

beta-hydroxy-beta-methylbutyrate [HMB]
HMB excreted in the urine [1]: less
plasma HMB levels [1]: lower
plasma 3-MH [2]: significant decrease
blood levels of CPK after the run (muscle damage (CPK, LDH)): reduced levels
blood levels of LDH after the run (muscle damage (CPK, LDH)): reduced levels
perceived muscle soreness [3]: reduced
strength loss [3]: less strength loss
time to increase of plasma levels [4]: 30 min
DOMS [5]: did not reduce
decrease in blood CPK levels [6]: 2%
